# Source: ChEMBL document CHEMBL4834397 (J Med Chem, 2021)
# Experiments:
# [1] = target: T1, Leukotriene A-4 hydrolase (Homo sapiens, UniProt P09960); assay: Inhibition of LTA4H in human whole blood assessed as reduction of calcium ionophore A23187-stimulated LTB4 generation preincubated for 4 hrs followed by ionophore stimulation and measured after 15 hrs by EIA assay; format: tissue-based
# T1 sequence (P09960 whole entry): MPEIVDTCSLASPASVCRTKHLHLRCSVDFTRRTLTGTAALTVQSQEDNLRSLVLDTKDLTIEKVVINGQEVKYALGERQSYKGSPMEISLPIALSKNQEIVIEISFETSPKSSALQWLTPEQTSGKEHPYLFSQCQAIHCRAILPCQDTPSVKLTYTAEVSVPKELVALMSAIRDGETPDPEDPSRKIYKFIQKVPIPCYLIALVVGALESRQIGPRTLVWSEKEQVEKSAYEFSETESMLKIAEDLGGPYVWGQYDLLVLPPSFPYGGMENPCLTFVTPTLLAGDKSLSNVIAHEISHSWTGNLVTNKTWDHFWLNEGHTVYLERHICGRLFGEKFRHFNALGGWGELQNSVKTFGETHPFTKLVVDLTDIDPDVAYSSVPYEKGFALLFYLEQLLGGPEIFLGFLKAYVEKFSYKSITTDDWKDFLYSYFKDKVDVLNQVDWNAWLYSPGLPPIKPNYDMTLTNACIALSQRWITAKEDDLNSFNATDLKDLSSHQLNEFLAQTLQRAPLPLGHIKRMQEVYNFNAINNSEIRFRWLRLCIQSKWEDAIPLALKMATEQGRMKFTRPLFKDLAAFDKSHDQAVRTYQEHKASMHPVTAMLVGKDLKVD
# [2] = target: T1, Leukotriene A-4 hydrolase; assay: (§1) Inhibition of recombinant full length N-terminal His6-tagged LTA4H (unknown origin) expressed in Escherichia coli BL21 DE3 cells at enzyme concentration <1 nM using Arg-AMC as substrate preincubated for 15 mins followed by substrate addition and measured every 10 mins for 300 mins by fluorescence based assay
# [3] = target: T2, Leukotriene A-4 hydrolase (Homo sapiens) (UniProt P09960); details: PBMC, time 6.0 hrs
# T2 sequence (whole entry): T1 sequence (P09960 whole entry)
# [4] = target: T2, Leukotriene A-4 hydrolase (Homo sapiens); details: Blood, time 19.0 hrs
# [5] = target: T1, Leukotriene A-4 hydrolase; assay: Inhibition of LTA4H in human PBMC assessed as reduction of calcium ionophore A23187-stimulated LTB4 generation preincubated for 4 hrs followed by ionophore stimulation and measured after 2 hrs by EIA assay; format: tissue-based
# [6] = Drug concentration in plasma isolated from C57/BL6 mouse at 0.625 mg/kg, po BID for 3 days measured after 14 hrs post last dose; format: ADME, organism-based; details: time 3 day
# [7] = Drug concentration in blood isolated from C57/BL6 mouse at […], po BID for 3 days measured after 2 hrs post last dose; format: ADME, organism-based; details: dose 2.5 mg/kg, time 3 day, read-out: Ct
# [8] = Drug concentration in blood isolated from C57/BL6 mouse at 0.625 mg/kg, po BID for 3 days measured after 2 hrs post last dose; format: ADME, organism-based; details: time 3 day, read-out: Ct
# [9] = Drug concentration in plasma isolated from C57/BL6 mouse at 10 mg/kg, po BID for 3 days measured after 2 hrs post last dose; format: ADME, organism-based; details: time 3 day
# [10] = Drug concentration in blood isolated from C57/BL6 mouse at 10 mg/kg, po BID for 3 days measured after 2 hrs post last dose; format: ADME, organism-based; details: time 3 day, read-out: Ct
# [11] = Drug concentration in plasma isolated from C57/BL6 mouse at […], po BID for 3 days measured after 14 hrs post last dose; format: ADME, organism-based; details: dose 2.5 mg/kg, time 3 day
# [12] = Drug concentration in blood isolated from C57/BL6 mouse at 10 mg/kg, po BID for 3 days measured after 14 hrs post last dose; format: ADME, organism-based; details: time 3 day, read-out: Ct
# [13] = Drug concentration in plasma isolated from C57/BL6 mouse at 10 mg/kg, po BID for 3 days measured after 14 hrs post last dose; format: ADME, organism-based; details: time 3 day
# [14] = Drug concentration in blood isolated from C57/BL6 mouse at […], po BID for 3 days measured after 14 hrs post last dose; format: ADME, organism-based; details: dose 2.5 mg/kg, time 3 day, read-out: Ct
# [15] = Drug concentration in blood isolated from C57/BL6 mouse at 0.625 mg/kg, po BID for 3 days measured after 14 hrs post last dose; format: ADME, organism-based; details: time 3 day, read-out: Ct
# [16] = Drug concentration in plasma isolated from C57/BL6 mouse at […], po BID for 3 days measured after 2 hrs post last dose; format: ADME, organism-based; details: dose 2.5 mg/kg, time 3 day
# [17] = Drug concentration in plasma isolated from C57/BL6 mouse at 0.625 mg/kg, po BID for 3 days measured after 2 hrs post last dose; format: ADME, organism-based; details: time 3 day
# [18] = target: T2, Leukotriene A-4 hydrolase (Homo sapiens); details: dose 250.0 µM, time 30.0 min
# [19] = target: T1, Leukotriene A-4 hydrolase; assay: as §1, with “9” for “<1”
# [20] = target: T2, Leukotriene A-4 hydrolase (Homo sapiens); details: dose 500.0 µM, time 30.0 min
# [21] = target: T2, Leukotriene A-4 hydrolase (Homo sapiens); details: dose 1000.0 µM, time 30.0 min
# [22] = target: T2, Leukotriene A-4 hydrolase (Homo sapiens); details: dose 125.0 µM, time 30.0 min
smiles,measurement,setting,value
CC(=O)N[C@H]1C[C@H]2CC[C@@H](C1)N2Cc1ccc(Oc2nc3ncccc3s2)cc1,IC50,[1],48 nM
same,IC50,[2],1.9 nM
same,IC90,[3],92 nM
same,IC90,[4],104 nM
same,IC50,[5],18 nM
O=C(O)CCCN1CCC[C@H]1COc1ccc(Oc2ccc(Cl)cc2)cc1,IC90,[3],1070 nM
same,IC90,[4],5050 nM
O=C(O)c1ccc(CN2C[C@@H]3C[C@H]2CN3Cc2ccc(Oc3ccc(-c4ncco4)cc3)cc2)cc1 [ACEBILUSTAT],IC50,[1],142 nM
same,IC50,[2],4.9 nM
same,IC90,[3],181 nM
same,concentration at 72 h,[6],9 nM
same,concentration at 72 h,[7],1860 nM
same,concentration at 72 h,[8],488 nM
same,concentration at 72 h,[9],14.6 µM
same,concentration at 72 h,[10],7.62 µM
same,concentration at 72 h,[11],94 nM
same,concentration at 72 h,[12],554 nM
same,concentration at 72 h,[13],826 nM
same,concentration at 72 h,[14],166 nM
same,IC90,[4],728 nM
same,concentration at 72 h,[15],32 nM
same,concentration at 72 h,[16],3.82 µM
same,concentration at 72 h,[17],597 nM
same,IC50,[5],24 nM
OCc1ccc(Oc2ccccc2)cc1,ΔTm,[18],0.2 °C
same,IC50,[19],4.5 µM
same,ΔTm,[20],0.2 °C
same,ΔTm,[21],0.3 °C
same,ΔTm,[22],0.08 °C
